Laboratory results published in patent publication US6531496B1 (Bayer Aktiengesellschaft, priority 1999, dated 2003).

Columns and labels:
Plutella = Plutella test/synthetic feed; format: in vivo; settings: active compound concentration 0.1%, after 7 days
Method: Plutella Test/Synthetic Feed Solvent: 100 parts by weight of acetone […] 1900 parts by weight of methanol To prepare a suitable active compound preparation, 1 part by weight of active compound is mixed with the stated amount of solvent and the concentrate is diluted with methanol to the desired concentration. A stated amount of active compound preparation of the desired concentration is pipetted onto a standardized amount of synthetic feed. After the methanol has evaporated, the lid of a film box, populated with approx. 100 Plutella eggs, is placed over each cavity. The freshly hatched larvae crawl onto the treated synthetic feed. After the desired time, the destruction is determined in %. 100% means that all the animals have been killed; 0% means that none of the animals have been killed.

Plasmopara viticola = experiment: Plasmopara test (grapevine)/protective; format: in vivo; settings: 144 h, protective, evaluated 6 days after inoculation, read-out: Efficacy in %
Method: Plasmopara Test (Grapevine)/Protective Solvent: 47 parts by weight of acetone Emulsifier: 3 parts by weight of alkylaryl polyglycol ether To prepare a suitable active compound preparation, 1 part by weight of active compound is mixed with the stated amounts of solvent and emulsifier, and the concentrate is diluted with water to the desired concentration. To test for protective activity, young plants are sprayed with the active compound preparation at the application rate stated. After the spray coating has dried on, the plants are inoculated with an aqueous spore suspension of Plasmopara viticola and then remain for 1 day in an incubation cabinet at approx. 20° C. and a relative atmospheric humidity of 100%. […] The plants are then moistened and placed in an incubation cabinet for 1 day.

What does the source list for `Nc1ccc(OC2=NS(=O)(=O)CS2)c(Cl)c1Cl` [Example 14]?
Destruction in % after 7^d (Plutella): 95%; pest or weed control at 250 g/ha (Plasmopara viticola): ≥ 90%
